Reference: patent US20240174618A1, “SUBSTITUTED (2-HETEROARYLOXYPHENYL)SULFONATES, SALTS THEREOF AND THEIR USE AS HERBICIDAL AGENTS” (Bayer Aktiengesellschaft, priority 2021, published 2024)

Assays:
Type in all cases: in vivo
[1] = system: Abutilon theophrasti (ABUTH); assay: A. Herbicidal pre-emergence efficacy, ABUTH; conditions: scored visually after about 3 weeks vs untreated controls
Procedure, shortened: (§1)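 Pre-emergence soil-surface spray in sandy loam pots, WP/EC in water plus 0.5% additive, 600 L/ha. Visual % damage rating after about 3 weeks in greenhouse vs. untreated; 0% = control-like, 100% = dead plants. Rates up to 1280 g/ha.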

[2] = system: Digitaria sanguinalis (DIGSA); assay: A. Herbicidal pre-emergence efficacy, DIGSA; conditions: scored visually after about 3 weeks vs untreated controls
Procedure, shortened: as §1

[3] = system: Echinochloa crus-galli (ECHCG); assay: A. Herbicidal pre-emergence efficacy, ECHCG; conditions: scored visually after about 3 weeks vs untreated controls
Procedure, shortened: as §1

[4] = system: Lolium rigidum (LOLRI); assay: A. Herbicidal pre-emergence efficacy, LOLRI; conditions: dosage 1280 g/ha
Excerpt: (§2) Seeds of mono- and dicotyledonous weed plants were placed in plastic pots in sandy loam soil (doubly sown with one species each of mono- or dicotyledonous weed plants per pot) and covered with soil. The compounds of the invention, formulated in the form of wettable powders (WP) or as emulsion concentrates (EC), were then applied onto the surface of the covering soil as aqueous suspension or emulsion with addition of 0.5% additive at a water application rate of 600 liters per hectare (converted). After the treatment, the pots were placed in a greenhouse and kept under good growth conditions for the test plants. After about 3 weeks, the efficacy of the preparations was scored visually in comparison with untreated controls as percentages.
(§3) For example, • 100% efficacy=plants have died, • 0% efficacy=like untreated control plants.
(§4) Tables A1a to A12c below show the effects of selected compounds of the general formula (I) according to table 1 on various harmful plants at an application rate corresponding to 1280 g/ha or less, which were obtained by the experimental procedure mentioned above.

[5] = system: Matricaria inodora (MATIN); assay: A. Herbicidal pre-emergence efficacy, MATIN; conditions: pre-emergence, dosage 1280 g/ha
Excerpt: as §2, §3, §4

[6] = system: Poa annua (POAAN); assay: A. Herbicidal pre-emergence efficacy, POAAN
Procedure, shortened: as §1

[7] = system: Setaria viridis (SETVI); assay: A. Herbicidal pre-emergence efficacy, SETVI
Procedure, shortened: as §1

[8] = system: Stellaria media (STEME); assay: A. Herbicidal pre-emergence efficacy, STEME
Procedure, shortened: as §1

[9] = system: Veronica persica (VERPE); assay: A. Herbicidal pre-emergence efficacy, VERPE
Procedure, shortened: as §1

[10] = system: Amaranthus retroflexus (AMARE); assay: A. Herbicidal pre-emergence efficacy, AMARE
Procedure, shortened: as §1

[11] = system: Abutilon theophrasti (ABUTH); assay: B. Herbicidal post-emergence efficacy, ABUTH; conditions: rated visually after about 3 weeks
Procedure, shortened: (§5)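 Weeds grown in sandy loam in greenhouse pots, sprayed at one-leaf stage (2–3 weeks after sowing) with WP or EC formulations as aqueous suspension/emulsion plus 0.5% additive at 600 L/ha water, rates up to 1280 g/ha. Visual efficacy rated about 3 weeks later versus untreated controls (0% = like control, 100% = dead).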

[12] = system: Digitaria sanguinalis (DIGSA); assay: B. Herbicidal post-emergence efficacy, DIGSA; conditions: 1280 g/ha, rated visually after about 3 weeks
Description: (§6) Seeds of mono- and dicotyledonous weed plants were placed in plastic pots in sandy loam soil (doubly sown with in each case one species of mono- or dicotyledonous weed plants per pot), covered with soil and cultivated in a greenhouse under controlled growth conditions. 2 to 3 weeks after sowing, the test plants were treated at the one-leaf stage. The compounds of the invention, formulated in the form of wettable powders (WP) or as emulsion concentrates (EC), were applied onto the green parts of the plants as aqueous suspension or emulsion with addition of 0.5% additive at a water application rate of 600 liters per hectare (converted). After the test plants had been kept in the greenhouse under optimum growth conditions for about 3 weeks, the activity of the preparations was rated visually in comparison to untreated controls.
(§7) For example, • 100% efficacy=plants have died, • 0% efficacy=like untreated control plants
(§8) Tables B1a to B12c below show the effects of selected inventive compounds of the general formula (I) according to table 1 on various harmful plants at an application rate corresponding to 1280 g/ha or less, which were obtained by the experimental procedure mentioned above.

[13] = system: Echinochloa crus-galli (ECHCG); assay: B. Herbicidal post-emergence efficacy, ECHCG; conditions: 1280 g/ha, rated visually after about 3 weeks
Procedure, shortened: as §5

[14] = system: Kochia scoparia (KCHSC); assay: B. Herbicidal post-emergence efficacy, KCHSC; conditions: 1280 g/ha
Procedure, shortened: as §5

[15] = system: Poa annua (POAAN); assay: B. Herbicidal post-emergence efficacy, POAAN
Procedure, shortened: as §5

[16] = system: Setaria viridis (SETVI); assay: B. Herbicidal post-emergence efficacy, SETVI; conditions: 1280 g/ha
Description: as §6, §7, §8

[17] = system: Stellaria media (STEME); assay: B. Herbicidal post-emergence efficacy, STEME
Procedure, shortened: as §5

[18] = system: Veronica persica (VERPE); assay: B. Herbicidal post-emergence efficacy, VERPE
Procedure, shortened: as §5

[19] = system: Amaranthus retroflexus (AMARE); assay: B. Herbicidal post-emergence efficacy, AMARE
Procedure, shortened: as §5

[20] = system: Kochia scoparia (KCHSC); assay: A. Herbicidal pre-emergence efficacy, KCHSC; conditions: pre-emergence, dosage 1280 g/ha
Procedure, shortened: as §1

SMILES: Cc1cccc(Oc2ncc(Br)cn2)c1OS(=O)(=O)CCC(F)(F)F [Example I-33]
- Pre-emergence efficacy against ABUTH ([1]; 320 g/ha): 100%
- Pre-emergence efficacy against ABUTH ([1]; 1280 g/ha): 100%
- Pre-emergence efficacy against DIGSA ([2]; 320 g/ha): 100%
- Pre-emergence efficacy against DIGSA ([2]; 1280 g/ha): 100%
- Pre-emergence efficacy against ECHCG ([3]; 320 g/ha): 100%
- Pre-emergence efficacy against ECHCG ([3]; 1280 g/ha): 100%
- Pre-emergence efficacy against LOLRI [4]: 100%
- Pre-emergence efficacy against MATIN [5]: 90%
- Pre-emergence efficacy against POAAN ([6]; dosage 320 g/ha): 100%
- Pre-emergence efficacy against POAAN ([6]; dosage 1280 g/ha): 100%
- Pre-emergence efficacy against SETVI ([7]; dosage 320 g/ha): 100%
- Pre-emergence efficacy against SETVI ([7]; dosage 1280 g/ha): 100%
- Pre-emergence efficacy against STEME ([8]; dosage 80 g/ha): 100%
- Pre-emergence efficacy against STEME ([8]; dosage 320 g/ha): 100%
- Pre-emergence efficacy against STEME ([8]; dosage 1280 g/ha): 100%
- Pre-emergence efficacy against VERPE in % ([9]; 320 g/ha): 100%
- Pre-emergence efficacy against VERPE in % ([9]; 1280 g/ha): 100%
- Pre-emergence efficacy against VERPE ([9]; dosage 80 g/ha): 90%
- Pre-emergence efficacy against AMARE in % ([10]; 80 g/ha): 90%
- Pre-emergence efficacy against AMARE in % ([10]; 320 g/ha): 100%
- Pre-emergence efficacy against AMARE in % ([10]; 1280 g/ha): 100%
- Post-emergence efficacy against ABUTH in % ([11]; 320 g/ha): 90%
- Post-emergence efficacy against ABUTH in % ([11]; 1280 g/ha): 100%
- Post-emergence efficacy against DIGSA in % [12]: 90%
- Post-emergence efficacy against ECHCG in % [13]: 100%
- Post-emergence efficacy against KCHSC [14]: 100%
- Post-emergence efficacy against POAAN ([15]; 320 g/ha): 90%
- Post-emergence efficacy against POAAN ([15]; 1280 g/ha): 100%
- Post-emergence efficacy against SETVI [16]: 100%
- Post-emergence efficacy against STEME ([17]; 80 g/ha): 90%
- Post-emergence efficacy against STEME ([17]; 320 g/ha): 100%
- Post-emergence efficacy against STEME ([17]; 1280 g/ha): 100%
- Post-emergence efficacy against VERPE ([18]; 80 g/ha): 100%
- Post-emergence efficacy against VERPE ([18]; 320 g/ha): 100%
- Post-emergence efficacy against VERPE ([18]; 1280 g/ha): 100%
- Post-emergence efficacy against AMARE ([19]; 320 g/ha): 90%
- Post-emergence efficacy against AMARE ([19]; 1280 g/ha): 100%

SMILES: O=S(=O)(CC1CCCO1)Oc1c(F)cccc1Oc1ncc(Cl)cn1 (stereo not drawn) [Example I-54]
- Pre-emergence efficacy against ABUTH ([1]; 320 g/ha): 90%
- Pre-emergence efficacy against ABUTH ([1]; 1280 g/ha): 100%
- Pre-emergence efficacy against DIGSA ([2]; 320 g/ha): 90%
- Pre-emergence efficacy against DIGSA ([2]; 1280 g/ha): 100%
- Pre-emergence efficacy against ECHCG ([3]; 320 g/ha): 100%
- Pre-emergence efficacy against ECHCG ([3]; 1280 g/ha): 100%
- Pre-emergence efficacy against KCHSC [20]: 90%
- Pre-emergence efficacy against LOLRI [4]: 90%
- Pre-emergence efficacy against MATIN [5]: 90%
- Pre-emergence efficacy against POAAN ([6]; dosage 320 g/ha): 90%
- Pre-emergence efficacy against POAAN ([6]; dosage 1280 g/ha): 100%
- Pre-emergence efficacy against SETVI ([7]; dosage 320 g/ha): 100%
- Pre-emergence efficacy against SETVI ([7]; dosage 1280 g/ha): 100%
- Pre-emergence efficacy against STEME ([8]; dosage 320 g/ha): 90%
- Pre-emergence efficacy against STEME ([8]; dosage 1280 g/ha): 100%
- Pre-emergence efficacy against VERPE in % ([9]; 1280 g/ha): 90%
- Pre-emergence efficacy against AMARE in % ([10]; 320 g/ha): 100%
- Pre-emergence efficacy against AMARE in % ([10]; 1280 g/ha): 100%
- Post-emergence efficacy against ABUTH in % ([11]; 1280 g/ha): 90%
- Post-emergence efficacy against DIGSA in % [12]: 90%
- Post-emergence efficacy against ECHCG in % [13]: 90%
- Post-emergence efficacy against KCHSC [14]: 90%
- Post-emergence efficacy against POAAN ([15]; 1280 g/ha): 90%
- Post-emergence efficacy against SETVI [16]: 90%
- Post-emergence efficacy against STEME ([17]; 1280 g/ha): 90%
- Post-emergence efficacy against VERPE ([18]; 80 g/ha): 90%
- Post-emergence efficacy against VERPE ([18]; 320 g/ha): 90%
- Post-emergence efficacy against VERPE ([18]; 1280 g/ha): 90%
- Post-emergence efficacy against AMARE ([19]; 1280 g/ha): 90%
